In publication PMC8657848, “Developmental Toxicity and Biotransformation of Two Anti-Epileptics in Zebrafish Embryos and Early Larvae” (International Journal of Molecular Sciences, 2021):
Several values for one entry are separate records, joined by “and”; a condition that tells them apart may be missing. Equal entries are not always repeated.

Columns and labels:
[1] = test system: zebrafish embryos and larvae; test: Morphological evaluation of zebrafish embryos/larvae exposed from 5¼ to 120 hpf; conditions: for Significant effect on embryo/larva development after exposure to the metabolite: 5¼–120 hpf; for Teratogenicity in zebrafish (conclusion from morphological and analytical assessment): exposure 5¼–120 hpf
Procedure: Each experiment was performed in two biological replicates (n = 2, 20 embryos/replicate) and consisted of a medium control group (EMS), solvent control group(s) (EMS + 0.5% DMSO and/or EMS + 1% DMSO) and four dose groups. […] Embryos were reared until they reached the desired developmental stage, under the same environmental conditions as the adults (28.5 °C ± 0.3 °C with a 14/10 h light/dark cycle) in the incubator (TIN-IN35, Phoenix instrument, Garbsen, Germany).
For the metabolites, E-CBZ (≥98% purity, CAS number: 36507-30-9, Supelco, Merck, Darmstadt, Germany) and HPPH (98% purity, CAS number: 2784-27-2, Sigma-Aldrich®, Merck, Darmstadt, Germany), we only selected one high concentration, 250 µM (see Supplementary Table S1). […] A higher percentage of DMSO was used for E-CBZ for the optimum dissolution of E-CBZ in EMS. Immediately after the selection (see Section 4.1), twenty embryos were randomly distributed in each control and test group. Embryos were exposed at the latest at 5 hpf in a final volume of 300 µL medium at a density of a fish per well.
For each biological replicate (n = 2), zebrafish embryos were morphologically investigated at 5¼, 10, 24, 48, 72, 96 and 120 hpf (Figure 9) using an Olympus CKX41 microscope with an Olympus U-TV0.5XC-3 lighting and an Olympys 4x/0.16 Uplan APO microscope objective (Shinjuku, Tokyo, Japon) to follow the developmental stages described by Kimmel et al.. The 5¼- and 10-hpf time points served as control steps to identify unfertilized or coagulated eggs that were included unwittingly to the experiment and referenced as coagulated in the 24-hpf morphological sheet (see Supplementary Figure S3). A series of morphological parameters were explored, adapted from Nagel et al., depending on the different time points of interest and described previously by our group (see Supplementary Figure S3). All parameters were scored 0 if normal and 1 if malformed. This binary scale was used to facilitate the scoring and no gradation of the severity of the endpoints was evaluated in this study.

[2] = Quantification of compound in stock and culture medium relative to nominal concentration (LC-MS); format: physicochemical; conditions: 96 hpf
Procedure: The control and test mediums were also kept in the same incubator until the last time point of the experiment. The embryo media were renewed every 48 h, to avoid medium acidification and oxygen deprivation. At each medium change and at the last time point of the experiment (Figure 9), the media exposed to the embryos were pooled and kept at −80 °C for further use (n = 3). Moreover, samples from the stock solutions kept at 28.5 °C ± 0.3 °C were also taken at 0 and 120 hpf (n = 3), whereas samples were only taken at 96 hpf for the metabolites medium (E-CBZ and HPPH).

zebrafish embryos/larvae = test: Quantification of parent compounds and metabolites in whole zebrafish embryos/larvae homogenate extracts; conditions: for Uptake by embryos and larvae (quantified in homogenate extracts): 24 and 120 hpf, CBZ, PHE 31.25, 85, 250 µM, E-CBZ, HPPH 250 µM
Procedure: In three biological replicates (n = 3; 20 embryos/replicate) and at the two desired developmental stages (24 and 120 hpf), embryos/larvae of each test and control group were pooled and then rinsed three times with cold EMS (4 °C) on a mesh (Cell strainer […] Nylon, Steril Falcon®, Durham, NC, USA). Embryos collected at 24 hpf were not dechorionated, as the focus of this study was on the potential formation of the mammalian active metabolites. Moreover, it was argued that the chorion was more permeable than previously believed and that dechorionation could increase background malformations during gross morphology investigation. Embryos/larvae were then transferred and kept for five min in cryotubes (Cryo.S™, Greiner Bio-One, Frickenhausen, Germany) filled with 500 µL of cold embryo medium (4 °C), before being snap-frozen in liquid nitrogen and kept, for later use, at −80 °C (Figure 9).
The extraction preparation was based on Brox et al. for two developmental stages, 24 and 120 hpf, and performed in triplicate for each test group (n = 3, 20 embryos/replicate) (Figure 9). On the day of the extraction procedure, frozen samples (see Section 4.2.1) were thawed on ice and EMS was removed. A volume of 500 µL of acetonitrile (ACN) (purity ≥99.9%, Merck, Darmstadt, Germany) containing the internal standard lamotrigine, LAMO, (≥98% purity, CAS number: 84057-84-1, Sigma-Aldrich, Merck, Darmstadt, Germany) was then added to each tube to reach a final concentration of 0.39 µM, after dilution in HPLC-grade water. Samples were vortexed (VM3, CAT, Germany) for 5 min at a 2000 rotation/min speed, before being placed on ice and ultrasonicated with an Ultrasonic Processor VCX 130 (Sonics, Newtown, CT, USA) fifteen times for 30 s at an 80% amplitude with pause intervals of 30 s. Supernatants of the samples were then centrifuged (Centrifuge 5424 R, Eppendorf, Hamburg, Germany) twice at 4 °C for 15 min at 15,000× g, snap-frozen and kept for later use at −80 °C, whereas the pellets were discarded.
First, both sample types were processed to reach a final percentage of 30% ACN and a concentration of 0.39 µM of the IS, LAMO. […] Calibration curves and quality controls were prepared in their corresponding reaction mixtures to minimize matrix or extraction process effects. The analytical investigations were performed on an Acquity Ultra Performance Liquid Chromatography (UPLC) with sample manager, binary solvent manager, diode array detector and a triple-quadrupole detector (ACQUITY UPLC-triple quadrupole detector, Waters, Milford, CT, USA) equipped with the Masslynx software (version 4.1). […] Separation was accomplished in 6 min, using a flow rate of 0.5 mL/min. The solvent gradient program was set as follows: 85% A/15% B (0–0.5 min); 85–0% A/15–100% B (0.5–3.3 min); 0% A/100% B (3.3–4.4 min); 0–85% A/100–15% B (4.4–4.5 min); 85% A/15% B (4.5–6 min). The column was set at 40 °C and the injection volume was 10 μL. For the mass spectrometric conditions, the following parameters were used in positive ionization mode: capillarity voltage 3.5 kV, extractor voltage 3 V, cone voltage 35 V, Rf lens 0.1 V. The source temperature was set at 120 °C and the desolation temperature at 450 °C. The desolvation gas flow was fixed at 1000 L/h and cone gas flow at 50 L/h. […] The limit of quantification, linearity, matrix effects and specificity of the method developed for each compound were validated based on the European Medicines Agency (EMA) guidelines for bioanalytical method validation and the study from Kislyuk et al..
For the quantification of the metabolites E-CBZ and HPPH, the samples processed were the microsomal incubation reactions (see Section 4.3.2), the zebrafish culture and stock medium (4.2.1) and the zebrafish embryos/larvae extracts (see Section 4.2.3). Samples from the different experiments were also prepared, as for the parent compounds, to reach a final percentage of 30% ACN and a concentration of 0.39 µM of the IS, LAMO.

zebrafish embryos = conditions: cited from earlier work; for Teratogenicity on zebrafish development: after 70 h of exposure (time point 72 hpf)
[3] = CBZ/E-CBZ experiment, 250 µM, 120 hpf, affected/evaluated, replicates 1 and 2
[4] = PHE/HPPH experiment, 250 µM, 120 hpf, affected/evaluated, replicates 1 and 2

NC(=O)N1c2ccccc2C2OC2c2ccccc21 (stereo not drawn) [E-CBZ, carbamazepine-10,11-epoxide]
Significant effect on embryo/larva development after exposure to the metabolite ([1]; 250 µM): delay in swim bladder inflation at 120 hpf for one replicate | Morphological differences compared with the controls before 48 hpf ([1]; CBZ 31.25, 85, 250 µM, E-CBZ 250 µM): No statistically significant differences | Deviation Tail Curve [1, 3]: 1/20 | Malformation Head Deviation Eye [1, 3]: 1/20 | Malformation Head Deviation Mouth [1, 3]: 1/20 | Oedema Head [1, 3]: 1/20 | Oedema Pericardium [1, 3]: 1/20 | Oedema Yolk [1, 3]: 1/20 | Swim Bladder Not Inflated [1, 3]: 3/20 and 6/20 * | Teratogenicity in zebrafish (conclusion from morphological and analytical assessment) [1]: not teratogenic in zebrafish | Quantified concentration above the nominal concentration ([2]; 250 µM, culture medium): around 20% | Percentage of quantified compound concentration relatively to the nominal concentration ([2]; CBZ–E-CBZ, Culture medium, nominal 250 µM): 117.3 ± 9.3% | Uptake by embryos and larvae (quantified in homogenate extracts) (zebrafish embryos/larvae): Uptake of the compounds was also observed | Findings after incubation of zebrafish embryos (zebrafish embryos; 2.6 mg/L (10.3 µM), 3 to 144 hpf): lack of findings

O=C1NC(=O)C(c2ccccc2)(c2ccc(O)cc2)N1 (stereo not drawn) [HPPH, 5-(4-hydroxyphenyl)-5-phenylhydantoin]
Significant effect on embryo/larva development after exposure to the metabolite ([1]; 250 µM): no significant effect | Deviation Tail Curve [1, 4]: 2/20 | Deviation Tail Tissue Deviation [1, 4]: 1/20 | Malformation Head Deviation Eye [1, 4]: 2/20 | Swim Bladder Not Inflated [1, 4]: 5/20 and 6/20 | Teratogenicity in zebrafish (conclusion from morphological and analytical assessment) [1]: not teratogenic in zebrafish | Uptake by embryos and larvae (quantified in homogenate extracts) (zebrafish embryos/larvae): Uptake of the compounds was also observed | Internal concentration, times higher at 24 hpf than at 120 hpf (zebrafish embryos/larvae; all concentrations): ~5 times

CN1C(=O)OC(C)(C)C1=O [TMO, trimethadione]
Teratogenicity on zebrafish development (zebrafish embryos): induced teratogenicity

CC1(C)OC(=O)NC1=O [DMO, dimethadione]
Teratogenicity on zebrafish development (zebrafish embryos): induced teratogenicity
